Measurements as given in US12123028B2, “Viral inactivation methods for continuous manufacturing of antibodies” (Bayer HealthCare LLC, priority 2018, dated 2024).

System: X-MuLV
Assay: Dual X-MuLV inactivation by low pH and detergent in mAb protein A eluate, remaining infectivity by TCID50 assay on PG-4 cells
Format: cell-based, Xenotropic Murine Leukemia Virus
Conditions: for LRF ± 95% CL: 16° C.
Procedure: […] The pH adjusted eluates were then filtered by a 0.22 um filter. Various volumes of 5% detergent stock solution were then added to the filtered protein A eluates. The low pH protein A eluates containing Mega-10, Tween 80 or Tween 20 were pre-incubated at a 16° C. water bath prior to spiking with X-MuLV at a 1:20 ratio. After a thorough mixing, an aliquot of sample was removed immediately and neutralized with 1 M Tris buffer to stop low pH viral inactivation, then immediately quenched with diluent at 1:12 for Mega-10 or at 1:100 for Tween 20 and Tween 80 to stop viral inactivation by the detergent. The collected sample was designated as a time-zero reference. The remaining spiked eluate was returned to the water bath and the samples were collected at indicated times to evaluate the viral inactivation kinetics. The remaining X-MuLV infectivity in the samples post-inactivation treatment was determined by a TCID50 assay that is an endpoint dilution assay to quantify the amount of virus required to produce a cytopathic effect in 50% of inoculated tissue culture cells. Virus titers were estimated using the Spearman-Karber method and reported as TCID50/mL with a calculated 95% confidence interval (CI). Briefly, a sufficient number of 96-well plates with PG-4 (feline S^+L^−, ATCC#CRL-2032) cells were prepared the day before starting the viral inactivation experiments and incubated overnight in a 37° C. humidified CO2 incubator. A set of ten 3.2 fold dilution of the diluted positive control (1:100) and viral inactivated samples were prepared in a dilution block. Each set of the 11 serial dilutions of the samples were inoculated correspondingly onto wells (100 μL per well) of the first 11 columns in a 96-well plate that had been pre-seeded with PG-4 cells. The 12th column in the same plate was inoculated with the corresponding diluent to serve as non-virus negative control. The positive control was prepared by spiking the filtered neutralized protein A eluate with X-MuLV at a 1:20 ratio. The inoculated plates were then incubated in a 37° C. humidified CO2 incubator for approximate 2 hours. A volume of 100 uL of 2× assay medium (92% McCoy's 5A medium, 4% FBS, 2% Penicillin/Streptomycin, 2% L-Glutamine) was added to each well of the plates at the end of incubation. The plates were then returned to the same incubator, and continued incubation for 6 days. Each well of the plates were scored under a microscope for the presence of cytopathic effect (CPE) and the results were recorded in a scoring sheet. Virus titers were then estimated using the Spearman-Karber method and reported as TCID50/mL with a calculated 95% confidence interval (CI).

CCCCCCCCCC(=O)N(C)C[C@H](O)[C@@H](O)[C@H](O)[C@H](O)CO [Mega-10, N-Methylglucamide]
LRF ± 95% CL (dual treatment pH 3.91 + 0.10% Mega 10, mAb1 protein A eluate, 0 minutes): 3.74 ± 0.33 | LRF ± 95% CL (dual treatment pH 3.91 + 0.10% Mega 10, mAb1 protein A eluate, 2.5 minutes): ≥ 5.40±0.21 | LRF ± 95% CL (dual treatment pH 3.91 + 0.10% Mega 10, mAb1 protein A eluate, 2.5 minutes, listed as Mega 10): ≥5.40 ± 0.21 | LRF ± 95% CL (dual treatment pH 3.91 + 0.10% Mega 10, mAb1 protein A eluate, 5 minutes): ≥5.40 ± 0.21 | LRF ± 95% CL (dual treatment pH 3.91 + 0.10% Mega 10, mAb1 protein A eluate, 10 minutes): ≥5.40 ± 0.21 | LRF ± 95% CL (dual treatment pH 3.91 + 0.10% Mega 10, mAb1 protein A eluate, 30 minutes): ≥5.40 ± 0.21 | LRF ± 95% CL (dual treatment pH 4.05 + 0.15% Mega 10, mAb2 protein A eluate, 0 minutes): 1.62 ± 0.27 | LRF ± 95% CL (dual treatment pH 4.05 + 0.15% Mega 10, mAb2 protein A eluate, 2.5 minutes): 3.96 ± 0.31 | LRF ± 95% CL (dual treatment pH 4.05 + 0.15% Mega 10, mAb2 protein A eluate, 5 minutes): 5.50±0.83 | LRF ± 95% CL (dual treatment pH 4.05 + 0.15% Mega 10, mAb2 protein A eluate, 5 minutes, listed as Mega 10): 5.50 ± 0.83 | LRF ± 95% CL (dual treatment pH 4.05 + 0.15% Mega 10, mAb2 protein A eluate, 10 minutes): ≥5.81 ± 0.18^ | LRF ± 95% CL (dual treatment pH 4.05 + 0.15% Mega 10, mAb2 protein A eluate, 30 minutes): ≥5.81 ± 0.18^ | time to inactivate X-MuLV to the level below the detection limit (dual treatment: mAb1 protein A eluate pH 3.91 with 0.1% Mega-10, 16° C. (240 minutes by pH 3.91 alone at 18° C.)): 2.5 min | time needed for inactivating X-MuLV to the level below the detection limit (dual treatment: mAb2 protein A eluate pH 4.05 with 0.15% Mega-10, 16° C. (120 minutes by pH 4.0 alone at 18° C.)): 10 min
